Measurements published in patent US20080167330A1, “Carbamoylsulphoximides as protein kinase inhibitors” (priority 2006, published 2008).

Experiments:
CDK2/CycE = biological target: T1, CDK2/CycE (Homo sapiens, UniProt P24941); experiment: CDK2/CycE kinase assay; assay type: biochemical; settings: 0.5 μM ATP
T1 construct: GST; purchased ProQinase GmbH, Freiburg; host or cells: baculovirus-infected insect cells (Sf9)
Method: Recombinant CDK2- and CycE-GST fusion proteins, purified from baculovirus-infected insect cells (Sf9), were purchased from ProQinase GmbH, Freiburg. The histone IIIS used as kinase substrate was purchased from Sigma. CDK2/CycE (1.25 ng/μL) was incubated in the presence of various concentrations of test substances (0 μM, and within the range 0.01-100 μM) in 40 μL of assay buffer [50 mM Tris/HCl pH 8.0, 10 mM MgCl2, 0.1 mM Na ortho-vanadate, 1.0 mM dithiothreitol, 0.5 μM ATP, 0.2% PEG20000, 10 μM histone IIIS, 0.2 μCi/measurement point ^33P-gamma ATP, 0.05% NP40, 1.25% dimethyl sulphoxide] at 22° C. for 10 min. The reaction was stopped by adding EDTA solution (250 mM, pH 8.0, 15 μl/measurement point).
15 μl of each reaction mixture were loaded onto P30 filter strips (from Wallac), and non-incorporated ^33P-ATP was removed by washing the filter strips three times in 0.5% strength phosphoric acid for 10 min each time.
After the filter strips had been dried at 70° C. for 1 hour, the filter strips were covered with scintillator strips (MeltiLex™ A, from Wallac) and baked at 90° C. for 1 hour. The amount of incorporated ^33P (substrate phosphorylation) was determined by scintillation measurement in a gamma radiation counter (Wallac).
The measured data were normalized to 0% inhibition (enzyme reaction without inhibitor) and 100% inhibition (all assay components except enzyme). The IC50 values were determined by means of a 4-parameter fit using the company's own software.

[1] = tested on: human MCF7 breast tumour cells; experiment: MCF7 proliferation assay; assay type: cell-based; settings: MCF7, 96 h, 4 days incubation, crystal violet staining
Method: Cultivated human MCF7 breast tumour cells (ATCC HTB-22) were plated out in a density of 5000 cells/measurement point in 200 μl of growth medium (RPMI1640, 10% foetal calf serum, 2 mU/mL insulin, 0.1 nM oestradiol) in a 96-well multititre plate. After 24 hours, the cells from a plate (zero plate) were stained with crystal violet (see below), while the medium in the other plates was replaced by fresh culture medium (200 μl) to which the test substances had been added in various concentrations (0 μM, and in the range 0.01-30 μM; the final concentration of the solvent dimethyl sulphoxide was 0.5%). The cells were incubated in the presence of the test substances for 4 days. The cell proliferation was determined by staining the cells with crystal violet: the cells were fixed by adding 20 μl/measurement point of an 11% strength glutaraldehyde solution at room temperature for 15 min. After the fixed cells had been washed three times with water, the plates were dried at room temperature. The cells were stained by adding 100 μl/measurement point of a 0.1% strength crystal violet solution (pH adjusted to pH 3 by adding acetic acid). After the stained cells had been washed three times with water, the plates were dried at room temperature. The dye was dissolved by adding 100 μl/measurement point of a 10% strength acetic acid solution, and the extinction was determined by photometry at a wavelength of 595 nm. The percentage change in cell growth was calculated by normalizing the measurements to the extinctions of the zero point plate (=0%) and the extinction of the untreated (0 μM) cells (=100%). The IC50 values were determined by means of a 4-parameter fit using the company's own software.

[2] = tested on: Aurora C, CDK1/CycB, CDK2/CycE, KDR (VEGFR2); experiment: various kinase assays taken together (selectivity profile); assay type: biochemical; settings: comparison across the kinase assays, in words
Method: The compounds of Examples 1 to 22 were tested for their inhibitory effect in the various kinase assays and in a proliferation assay with MCF7 human breast tumour cells (Tab. 1). […] Exemplary compounds 1-8, 10-12, 15, 17-20 inhibit the proliferation of human MCF7 breast tumour cells with half-maximum concentrations in the submicromolar range.

SMILES: Cc1ccc(Nc2ncc(Br)c(N[C@H](C)[C@@H](C)O)n2)cc1NC(=O)N=S(C)(C)=O [Example 8, N-({5-[(5-Bromo-4-{[(1R,2R)-2-hydroxy-1-methylpropyl]amino}pyrimidin-2-yl)amino]-2-methylphenyl}carbamoyl)-S,S-dimethylsulphoximide]
- IC50 (CDK2/CycE): 12 nM
- IC50 [1]: 700 nM

SMILES: C[C@@H](Nc1nc(Nc2ccc(NC(=O)N=S(C)(C)=O)cc2)ncc1Br)C(C)(C)O [Example 2, N-({4-[(5-Bromo-4-{[(R)-2-hydroxy-1,2-dimethylpropyl]amino}pyrimidin-2-yl)-amino]phenyl}carbamoyl)-S,S-dimethylsulphoximide]
- IC50 (CDK2/CycE): 10 nM
- IC50 [1]: 500 nM

SMILES: CS(C)(=O)=NC(=O)Nc1ccc(Nc2ncc(Br)c(Nc3ccc4[nH]cnc4c3)n2)cc1 [Example 16, N-[(4-{[4-(1H-Benzimidazol-5-ylamino)-5-bromopyrimidin-2-yl]amino}phenyl)-carbamoyl]-S,S-dimethylsulphoximide]
- IC50 (CDK2/CycE): 330 nM
- IC50 [1]: 2100 nM
- selectivity profile [2]: preferential KDR inhibition

SMILES: C[C@@H](O)[C@@H](C)Oc1nc(Nc2cccc(NC(=O)N=S(C)(C)=O)c2)ncc1Br [Example 6, N-({3-[(5-Bromo-4-{[(1R,2R)-2-hydroxy-1-methylpropyl]oxy}pyrimidin-2-yl)amino]phenyl}carbamoyl)-S,S-dimethylsulphoximide]
- IC50 (CDK2/CycE): 7 nM
- IC50 [1]: 150 nM

SMILES: C[C@@H](Nc1nc(Nc2ccc(C(=O)N=S(C)(C)=O)cc2)ncc1Br)C(C)(C)O [Example 19, N-{4-[(5-Bromo-4-{[(R)-2-hydroxy-1,2-dimethylpropyl]amino}pyrimidin-2-yl)amino]benzoyl}S,S-dimethylsulphoximide]
- IC50 (CDK2/CycE): 11 nM
- IC50 [1]: 250 nM

SMILES: C[C@@H](O)[C@@H](C)Nc1nc(Nc2ccc(Cl)c(NC(=O)N=S(C)(C)=O)c2)ncc1Br [Example 12, N-({5-[(5-Bromo-4-{[(1R,2R)-2-hydroxy-1-methylpropyl]amino}pyrimidin-2-yl)amino]-2-chlorophenyl}carbamoyl)-S,S-dimethylsulphoximide]
- IC50 (CDK2/CycE): 9 nM
- IC50 [1]: 860 nM

SMILES: C[C@@H](Nc1nc(Nc2cccc(NC(=O)N=S(C)(C)=O)c2)ncc1Br)C(C)(C)O [Example 1, N-({3-[(5-Bromo-4-{[(R)-2-hydroxy-1,2-dimethylpropyl]amino}pyrimidin-2-yl)amino]phenyl}carbamoyl)-S,S-dimethylsulphoximide]
- IC50 (CDK2/CycE): 9 nM
- IC50 [1]: 400 nM

SMILES: C[C@@H](O)[C@@H](C)Nc1nc(Nc2ccc(NC(=O)N=S(C)(C)=O)cc2)ncc1Br [Example 3, N-({4-[(5-Bromo-4-{[(1R,2R)-2-hydroxy-1-methylpropyl]amino}pyrimidin-2-yl)amino]phenyl}carbamoyl)-S,S-dimethylsulphoximide]
- IC50 (CDK2/CycE): 5 nM
- IC50 [1]: 160 nM

SMILES: C[C@@H](O)[C@@H](C)Nc1nc(Nc2ccc(C(=O)N=S(C)(C)=O)cc2)ncc1Br [Example 18, N-{4-[(5-Bromo-4-{[(1R,2R)-2-hydroxy-1-methylpropyl]amino}pyrimidin-2-yl)amino]benzoyl}-S,S-dimethylsulphoximide]
- IC50 (CDK2/CycE): 9 nM
- IC50 [1]: 140 nM

SMILES: C[C@@H](O)[C@@H](C)Nc1nc(Nc2cccc(NC(=O)N=S(C)(C)=O)c2)ncc1Br [Example 5, N-({3-[(5-Bromo-4-{[(1R,2R)-2-hydroxy-1-methylpropyl]amino}pyrimidin-2-yl)amino]phenyl}carbamoyl)-S,S-dimethylsulphoximide]
- IC50 (CDK2/CycE): 5 nM
- IC50 [1]: 160 nM

SMILES: C[C@@H](O)[C@@H](C)Oc1nc(Nc2ccc(C(=O)N=S(C)(C)=O)cc2)ncc1Br [Example 20, N-{4-[(5-Bromo-4-{[(1R,2R)-2-hydroxy-1-methylpropyl]oxy}pyrimidin-2-yl)amino]benzoyl}-S,S-dimethylsulphoximide]
- IC50 (CDK2/CycE): 12 nM
- IC50 [1]: 310 nM

SMILES: C[C@@H](O)[C@@H](C)Nc1nc(Nc2cccc(C(=O)N=S(C)(C)=O)c2)ncc1Br [Example 17, N-{3-[(5-Bromo-4-{[(1R,2R)-2-hydroxy-1-methylpropyl]amino}pyrimidin-2-yl)amino]benzoyl}-S,S-dimethylsulphoximide]
- IC50 (CDK2/CycE): 9 nM
- IC50 [1]: 380 nM
- selectivity profile [2]: CDK-selective

SMILES: C[C@@H](O)[C@@H](C)Oc1nc(Nc2ccc(NC(=O)N=S(C)(C)=O)cc2)ncc1Br [Example 4, N-({4-[(5-Bromo-4-{[(1R,2R)-2-hydroxy-1-methylpropyl]oxy}pyrimidin-2-yl)amino]phenyl}carbamoyl)-S,S-dimethylsulphoximide]
- IC50 (CDK2/CycE): 5 nM
- IC50 [1]: 140 nM

SMILES: C[C@@H](O)[C@@H](C)Nc1nc(Nc2ccc(F)c(NC(=O)N=S(C)(C)=O)c2)ncc1Br [Example 7, N-({5-[(5-Bromo-4-{[(1R,2R)-2-hydroxy-1-methylpropyl]amino}pyrimidin-2-yl)amino]-2-fluorophenyl}carbamoyl)-S,S-dimethylsulphoximide]
- IC50 (CDK2/CycE): 3 nM
- IC50 [1]: 500 nM

SMILES: C[C@@H](O)[C@@H](C)Nc1nc(Nc2ccc(NC(=O)N=S(C)(C)=O)cc2)ncc1C(F)(F)F [Example 15]
- IC50 (CDK2/CycE): 9 nM
- IC50 [1]: 530 nM
- selectivity profile [2]: CDK-selective

SMILES: COc1ccc(Nc2ncc(Br)c(N[C@H](C)[C@@H](C)O)n2)cc1NC(=O)N=S(C)(C)=O [Example 10, N-({5-[(5-Bromo-4-{[(1R,2R)-2-hydroxy-1-methylpropyl]amino}pyrimidin-2-yl)amino]-2-methoxyphenyl}carbamoyl)-S,S-dimethylsulphoximide]
- IC50 (CDK2/CycE): 20 nM
- IC50 [1]: 650 nM

SMILES: COc1cc(Nc2ncc(Br)c(N[C@H](C)[C@@H](C)O)n2)ccc1NC(=O)N=S(C)(C)=O [Example 11, N-({4-[(5-Bromo-4{[(1R,2R)-2-hydroxy-1-methylpropyl]amino}pyrimidin-2-yl)amino]-2-methoxyphenyl}carbamoyl)-S,S-dimethylsulphoximide]
- IC50 (CDK2/CycE): 19 nM
- IC50 [1]: 990 nM
